From patent publication US10787452B2 (Vertex Pharmaceuticals Incorporated, priority 2012, dated 2020)

test system: HCT116 colorectal cancer cells; assay: Cisplatin sensitization assay (96 h cell viability MTS); format: cell-based; conditions: 96 h MTS, compound plus Cisplatin;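 further: compound concentration needed to lower the Cisplatin-alone IC50 by a set fold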
Procedure: Compounds can be screened for their ability to sensitize HCT116 colorectal cancer cells to Cisplatin using a 96 h cell viability (MTS) assay. […] Compounds and Cisplatin are then both added simultaneously to the cell media in 2-fold serial dilutions from a top final concentration of 10 μM as a full matrix of concentrations in a final cell volume of 200 μl, and the cells are then incubated at 37° C. in 5% CO2. After 96 h, 40 μl of MTS reagent (Promega G358a) is added to each well and the cells are incubated for 1 h at 37° C. in 5% CO2.

SMILES	Cisplatin Sensitization Assay
Nc1nn2cc(F)cnc2c1C(=O)Nc1cncc(F)c1N1CCC(C(=O)N2CCNC3CC32)CC1 (stereo not shown) [I-G-62, N-(4-(4-(2,5-diazabicyclo[4.1.0]heptane-2-carbonyl)piperidin-1-yl)-5-fluoropyridin-3-yl)-2-amino-6-fluoropyrazolo[1,5-a]pyrimidine-3-carboxamide]	+++ (Compounds with a Cisplatin sensitization value of <0.02 μM are marked with “+++.”)
CN1CCN(C(=O)C2CCN(c3c(F)cncc3NC(=O)c3c(N)nn4cc(F)cnc34)CC2)CC12CC2 [I-G-38, 2-amino-6-fluoro-N-(5-fluoro-4-(4-(4-methyl-4,7-diazaspiro[2.5]octane-7-carbonyl)piperidin-1-yl)pyridin-3-yl)pyrazolo[1,5-a]pyrimidine-3-carboxamide]	+++ (Compounds with a Cisplatin sensitization value of <0.02 μM are marked with “+++.”)
CN1CCC[C@H]1C(=O)N1CCN(c2ccncc2NC(=O)c2c(N)nn3cc(F)cnc23)CC1 [I-N-198, (S)-2-amino-6-fluoro-N-(4-(4-(1-methylpyrrolidine-2-carbonyl)piperazin-1-yl)pyridin-3-yl)pyrazolo[1,5-a]pyrimidine-3-carboxamide]	++ (Compounds with a Cisplatin sensitization value >0.02 μM but <0.2 μM are marked with “++.”)
Nc1nn2cc(F)cnc2c1C(=O)Nc1cnccc1C1CC1 [I-C-42, 2-amino-N-(4-cyclopropylpyridin-3-yl)-6-fluoropyrazolo[1,5-a]pyrimidine-3-carboxamide]	++ (Compounds with a Cisplatin sensitization value >0.02 μM but <0.2 μM are marked with “++.”)
Nc1nn2cc(Cl)cnc2c1C(=O)Nc1cnccc1N1CCN(C2CCC2)CC1 [I-N-48, 2-amino-6-chloro-N-(4-(4-cyclobutylpiperazin-1-yl)pyridin-3-yl)pyrazolo[1,5-a]pyrimidine-3-carboxamide]	++ (Compounds with a Cisplatin sensitization value >0.02 μM but <0.2 μM are marked with “++.”)
CN1CC2CC1CN2C(=O)C1CCN(c2c(F)cncc2NC(=O)c2c(N)nn3cc(F)cnc23)CC1 (stereo not shown) [I-G-53, 2-amino-6-fluoro-N-(5-fluoro-4-(4-(5-methyl-2,5-diazabicyclo[2.2.1]heptane-2-carbonyl)piperidin-1-yl)pyridin-3-yl)pyrazolo[1,5-a]pyrimidine-3-carboxamide]	+++ (Compounds with a Cisplatin sensitization value of <0.02 μM are marked with “+++.”)
CN1CC2CN(c3c(Cl)cncc3NC(=O)c3c(N)nn4cc(F)cnc34)CC2C1 (stereo not shown) [I-N-286, 2-amino-N-(5-chloro-4-(5-methylhexahydropyrrolo[3,4-c]pyrrol-2(1H)-yl)pyridin-3-yl)-6-fluoropyrazolo[1,5-a]pyrimidine-3-carboxamide]	++ (Compounds with a Cisplatin sensitization value >0.02 μM but <0.2 μM are marked with “++.”)
Nc1nn2cc(F)cnc2c1C(=O)Nc1cnccc1N1CCN2CCOC[C@@H]2C1 [I-N-115, (S)-2-amino-6-fluoro-N-(4-(hexahydropyrazino[2,1-c][1,4]oxazin-8(1H)-yl)pyridin-3-yl)pyrazolo[1,5-a]pyrimidine-3-carboxamide]	+++ (Compounds with a Cisplatin sensitization value of <0.02 μM are marked with “+++.”)
Cc1cncc(NC(=O)c2c(N)nn3cc(Cl)cnc23)c1N1CCN(C)CC1 [I-N-57, 2-amino-6-chloro-N-(5-methyl-4-(4-methylpiperazin-1-yl)pyridin-3-yl)pyrazolo[1,5-a]pyrimidine-3-carboxamide]	+++ (Compounds with a Cisplatin sensitization value of <0.02 μM are marked with “+++.”)
Nc1nn2cc(F)cnc2c1C(=O)Nc1cnccc1N1CCC(c2ncon2)CC1 [I-N-241, N-(4-(4-(1,2,4-oxadiazol-3-yl)piperidin-1-yl)pyridin-3-yl)-2-amino-6-fluoropyrazolo[1,5-a]pyrimidine-3-carboxamide]	+++ (Compounds with a Cisplatin sensitization value of <0.02 μM are marked with “+++.”)
COCC1CCN(c2ccncc2NC(=O)c2c(N)nn3cc(F)cnc23)CC1 [I-N-282, 2-amino-6-fluoro-N-(4-(4-(methoxymethyl)piperidin-1-yl)pyridin-3-yl)pyrazolo[1,5-a]pyrimidine-3-carboxamide]	+++ (Compounds with a Cisplatin sensitization value of <0.02 μM are marked with “+++.”)
CN1CC[C@@H](Oc2ccncc2NC(=O)c2c(N)nn3cc(Cl)cnc23)C1 [I-O-63, (R)-2-amino-6-chloro-N-(4-((1-methylpyrrolidin-3-yl)oxy)pyridin-3-yl)pyrazolo[1,5-a]pyrimidine-3-carboxamide]	++ (Compounds with a Cisplatin sensitization value >0.02 μM but <0.2 μM are marked with “++.”)
Cc1ncccc1-c1ccncc1NC(=O)c1c(N)nn2cc(F)cnc12 [I-C-20, 2-amino-6-fluoro-N-(2-methyl-[3,4′-bipyridin]-3′-yl)pyrazolo[1,5-a]pyrimidine-3-carboxamide]	+++ (Compounds with a Cisplatin sensitization value of <0.02 μM are marked with “+++.”)
Nc1nn2cc(F)cnc2c1C(=O)Nc1cnccc1OC1CCOC1 (racemic) [I-O-15, (R,S)-2-amino-6-fluoro-N-(4-((tetrahydrofuran-3-yl)oxy)pyridin-3-yl)pyrazolo[1,5-a]pyrimidine-3-carboxamide]	+++ (Compounds with a Cisplatin sensitization value of <0.02 μM are marked with “+++.”)
Nc1nn2cc(F)cnc2c1C(=O)Nc1cncc(F)c1N1CCN(C(=O)C2CC2)CC1 [I-N-276, 2-amino-N-(4-(4-(cyclopropanecarbonyl)piperazin-1-yl)-5-fluoropyridin-3-yl)-6-fluoropyrazolo[1,5-a]pyrimidine-3-carboxamide]	+++ (Compounds with a Cisplatin sensitization value of <0.02 μM are marked with “+++.”)
CC(C)N1CCC(C(=O)N2CCN(c3c(F)cncc3NC(=O)c3c(N)nn4cc(F)cnc34)CC2)C1 (stereo not shown) [I-N-206, 2-amino-6-fluoro-N-(5-fluoro-4-(4-(1-isopropylpyrrolidine-3-carbonyl)piperazin-1-yl)pyridin-3-yl)pyrazolo[1,5-a]pyrimidine-3-carboxamide]	+++ (Compounds with a Cisplatin sensitization value of <0.02 μM are marked with “+++.”)
CN1CCC(NC(=O)C2CCN(c3c(F)cncc3NC(=O)c3c(N)nn4cc(F)cnc34)CC2)CC1 [I-G-20, 2-amino-6-fluoro-N-(5-fluoro-4-(4-((1-methylpiperidin-4-yl)carbamoyl)piperidin-1-yl)pyridin-3-yl)pyrazolo[1,5-a]pyrimidine-3-carboxamide]	+ (Compounds with a Cisplatin sensitization value >0.2 μM but <5 μM are marked with “+.”)
Nc1nn2cc(F)cnc2c1C(=O)Nc1cnccc1-c1ccc(C(=O)N2CCC(N3CCCC3)CC2)nc1 [I-C-53, 2-amino-6-fluoro-N-(6-(4-(pyrrolidin-1-yl)piperidine-1-carbonyl)-[3,4′-bipyridin]-3′-yl)pyrazolo[1,5-a]pyrimidine-3-carboxamide]	+++ (Compounds with a Cisplatin sensitization value of <0.02 μM are marked with “+++.”)
Nc1nn2cc(F)cnc2c1C(=O)Nc1cnccc1-c1ccnnc1 [I-C-26, 2-amino-6-fluoro-N-(4-(pyridazin-4-yl)pyridin-3-yl)pyrazolo[1,5-a]pyrimidine-3-carboxamide]	++ (Compounds with a Cisplatin sensitization value >0.02 μM but <0.2 μM are marked with “++.”)
CN1CC2(CCC1=O)CCN(c1ccncc1NC(=O)c1c(N)nn3cc(F)cnc13)CC2 [I-N-231, 2-amino-6-fluoro-N-(4-(2-methyl-3-oxo-2,9-diazaspiro[5.5]undecan-9-yl)pyridin-3-yl)pyrazolo[1,5-a]pyrimidine-3-carboxamide]	+++ (Compounds with a Cisplatin sensitization value of <0.02 μM are marked with “+++.”)
CN(C)CCN(C)C(=O)C1CCN(c2c(F)cncc2NC(=O)c2c(N)nn3cc(F)cnc23)CC1 [I-G-31, 2-amino-N-(4-(4-((2-(dimethylamino)ethyl)(methyl)carbamoyl)piperidin-1-yl)-5-fluoropyridin-3-yl)-6-fluoropyrazolo[1,5-a]pyrimidine-3-carboxamide]	+++ (Compounds with a Cisplatin sensitization value of <0.02 μM are marked with “+++.”)
CN1CCN(C(=O)C2CCN(c3c(Cl)cncc3NC(=O)c3c(N)nn4cc(F)cnc34)CC2)CC1 [I-G-3, 2-amino-N-(5-chloro-4-(4-(4-methylpiperazine-1-carbonyl)piperidin-1-yl)pyridin-3-yl)-6-fluoropyrazolo[1,5-a]pyrimidine-3-carboxamide]	+++ (Compounds with a Cisplatin sensitization value of <0.02 μM are marked with “+++.”)
Cn1cncc1-c1c(F)cncc1NC(=O)c1c(N)nn2cc(F)cnc12 [I-C-79, 2-amino-6-fluoro-N-(5-fluoro-4-(1-methyl-1H-imidazol-5-yl)pyridin-3-yl)pyrazolo[1,5-a]pyrimidine-3-carboxamide]	+++ (Compounds with a Cisplatin sensitization value of <0.02 μM are marked with “+++.”)
Nc1nn2cc(F)cnc2c1C(=O)Nc1cncc(F)c1N1CCC(C(=O)NCCN2CCC2)CC1 [I-G-42, 2-amino-N-(4-(4-((2-(azetidin-1-yl)ethyl)carbamoyl)piperidin-1-yl)-5-fluoropyridin-3-yl)-6-fluoropyrazolo[1,5-a]pyrimidine-3-carboxamide]	+++ (Compounds with a Cisplatin sensitization value of <0.02 μM are marked with “+++.”)
Cc1cnccc1-c1ccncc1NC(=O)c1c(N)nn2cc(F)cnc12 [I-C-29, 2-amino-6-fluoro-N-(3′-methyl-[4,4′-bipyridin]-3-yl)pyrazolo[1,5-a]pyrimidine-3-carboxamide]	+++ (Compounds with a Cisplatin sensitization value of <0.02 μM are marked with “+++.”)
